From ChEMBL document CHEMBL5143734, “Seco-Lupane Triterpene Derivatives Induce Ferroptosis through GPX4/ACSL4 Axis and Target Cyclin D1 to Block the Cell Cycle” (J Med Chem, 2022)
pIC50: −log10 of the molar value.

What was measured:
Assay type in all cases: functional, cell-based
PANC-1 = experiment: Cytotoxicity against human PANC-1 cells assessed as reduction in cell viability by CCK-8 assay
MCF7 = experiment: Cytotoxicity against human MCF7 cells assessed as reduction in cell viability by CCK-8 assay
HepG2 = experiment: Cytotoxicity against human HepG2 cells assessed as reduction in cell viability by CCK-8 assay
PC-3M = experiment: Cytotoxicity against human PC-3M cells assessed as reduction in cell viability by CCK-8 assay
A549 = experiment: Cytotoxicity against human A549 cells assessed as reduction in cell viability by CCK-8 assay

SMILES	pIC50 (PANC-1)	pIC50 (MCF7)	pIC50 (HepG2)	pIC50 (PC-3M)	pIC50 (A549)
C=C(C)[C@@H]1CC[C@]2(C(=O)OCCCCn3ccnc3C)CC[C@]3(C)[C@H](C[C@@H](O)[C@@H]4[C@@]5(C)C(CC(=O)OC)OC(C)(C)C5CC[C@]43C)[C@@H]12 (stereo not given in full)	4.32	4.17	4.66	4.44	4.50
C=C(C)[C@@H]1CC[C@]2(C(=O)OCCCCCn3cncn3)CC[C@]3(C)[C@H](C[C@@H](O)[C@@H]4[C@@]5(C)C(CC(=O)OC)OC(C)(C)C5CC[C@]43C)[C@@H]12 (stereo not given in full)	4.05	4.09	4.43	4.49	4.24
C=C(C)[C@@H]1CC[C@]2(C(=O)OCCCCCCBr)CC[C@]3(C)[C@H](C[C@H]4OC(=O)C[C@@H](O)[C@]5(C)[C@@H]4[C@@]3(C)CC[C@H]5C(=C)C)[C@@H]12	4.66	4.12	4.91	4.79	4.56
C=C(C)[C@@H]1CC[C@]2(C(=O)OCCCCCCCCCCn3cc(CCN)c4ccccc43)CC[C@]3(C)[C@H](C[C@@H](O)[C@@H]4[C@@]5(C)C(CC(=O)OC)OC(C)(C)C5CC[C@]43C)[C@@H]12 (stereo not given in full)	5.25	4.59	5.68	5.24	5.10
C=C(C)[C@@H]1CC[C@]2(C(=O)OCCCCn3cc(CCN)c4ccccc43)CC[C@]3(C)[C@H](C[C@H]4OC(=O)C[C@@H](O)[C@]5(C)[C@@H]4[C@@]3(C)CC[C@H]5C(=C)C)[C@@H]12	5.06	4.93	5.99	5.18	5.17
C=C(C)[C@@H]1CC[C@]2(C(=O)OCCCCCCCCCCn3cncn3)CC[C@]3(C)[C@H](C[C@@H](O)[C@@H]4[C@@]5(C)C(CC(=O)OC)OC(C)(C)C5CC[C@]43C)[C@@H]12 (stereo not given in full)	3.98	4.15	4.44	4.63	4.11
C=C(C)[C@@H]1CC[C@]2(C(=O)OCCCCCn3ccnc3CC)CC[C@]3(C)[C@H](C[C@H]4OC(=O)C[C@@H](O)[C@]5(C)[C@@H]4[C@@]3(C)CC[C@H]5C(=C)C)[C@@H]12	4.89	4.30	5.21	4.90	4.84
C=C(C)[C@@H]1CC[C@]2(C(=O)OCCCCn3cncn3)CC[C@]3(C)[C@H](C[C@@H](O)[C@@H]4[C@@]5(C)C(CC(=O)OC)OC(C)(C)C5CC[C@]43C)[C@@H]12 (stereo not given in full)	4.23	4.12	4.58	4.34	4.37
C=C(C)[C@@H]1CC[C@]2(C(=O)OCCCCCCn3cnc(C)c3)CC[C@]3(C)[C@H](C[C@@H](O)[C@@H]4[C@@]5(C)C(CC(=O)OC)OC(C)(C)C5CC[C@]43C)[C@@H]12 (stereo not given in full)	4.75	4.48	4.89	4.74	4.60
C=C(C)[C@@H]1CC[C@]2(C(=O)OCCCCCCn3ccnc3C)CC[C@]3(C)[C@H](C[C@H]4OC(=O)C[C@@H](O)[C@]5(C)[C@@H]4[C@@]3(C)CC[C@H]5C(=C)C)[C@@H]12	4.75	4.12	4.89	4.86	4.72
C=C(C)[C@@H]1CC[C@]2(C(=O)OCCCCCn3ccnc3C)CC[C@]3(C)[C@H](C[C@@H](O)[C@@H]4[C@@]5(C)C(CC(=O)OC)OC(C)(C)C5CC[C@]43C)[C@@H]12 (stereo not given in full)	4.37	4.27	4.69	4.42	4.46
C=C(C)[C@@H]1CC[C@]2(C(=O)OCCCCCCn3cncn3)CC[C@]3(C)[C@H](C[C@@H](O)[C@@H]4[C@@]5(C)C(CC(=O)OC)OC(C)(C)C5CC[C@]43C)[C@@H]12 (stereo not given in full)	4.22	4.10	4.42	4.56	4.28
